Laboratory results taken from ChEMBL document CHEMBL1133617, “Effect of C9-methyl substitution and C8-C9 conformational restriction on antifolate and antitumor activity of classical 5-substituted 2,4-diaminofuro[2,3-d]pyrimidines” (J Med Chem, 2000).

Key:
Dihydrofolate reductase [1] = molecular target: T1, Dihydrofolate reductase (Homo sapiens, UniProt P00374); assay: Inhibitory activity against Dihydrofolate reductase
T1 sequence (P00374 whole entry): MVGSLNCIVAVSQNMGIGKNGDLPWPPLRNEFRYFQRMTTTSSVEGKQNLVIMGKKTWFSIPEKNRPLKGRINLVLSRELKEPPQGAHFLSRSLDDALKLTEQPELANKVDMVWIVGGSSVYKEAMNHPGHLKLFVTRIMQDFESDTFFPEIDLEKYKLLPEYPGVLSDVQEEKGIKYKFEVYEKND

[2] = ratio of vmax to Km
CCRF-CEM = assay: Growth inhibition of CCRF-CEM human leukemia cells.; type: functional, cell-based
[3] = molecular target: T2, Bifunctional dihydrofolate reductase-thymidylate synthase (Toxoplasma gondii, UniProt Q07422); assay: Inhibitory concentration against Toxoplasma gondii Dihydrofolate reductase
T2 sequence (Q07422 whole entry): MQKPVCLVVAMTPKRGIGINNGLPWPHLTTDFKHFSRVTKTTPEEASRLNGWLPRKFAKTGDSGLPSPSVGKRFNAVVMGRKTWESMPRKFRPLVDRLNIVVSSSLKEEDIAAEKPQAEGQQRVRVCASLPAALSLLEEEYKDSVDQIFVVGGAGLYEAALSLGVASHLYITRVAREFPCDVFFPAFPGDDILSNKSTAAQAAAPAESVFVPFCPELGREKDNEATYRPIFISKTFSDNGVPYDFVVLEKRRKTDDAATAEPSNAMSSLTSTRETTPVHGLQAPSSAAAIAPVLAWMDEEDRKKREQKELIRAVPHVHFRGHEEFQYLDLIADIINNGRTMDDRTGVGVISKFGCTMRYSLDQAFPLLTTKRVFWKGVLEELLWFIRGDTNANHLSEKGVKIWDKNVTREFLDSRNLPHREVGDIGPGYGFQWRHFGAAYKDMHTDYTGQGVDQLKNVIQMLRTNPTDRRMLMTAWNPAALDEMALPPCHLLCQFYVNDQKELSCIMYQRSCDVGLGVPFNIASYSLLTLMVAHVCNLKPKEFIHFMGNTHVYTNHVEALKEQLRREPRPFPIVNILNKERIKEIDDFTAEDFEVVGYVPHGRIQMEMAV

FaDu [4] = assay: Growth inhibition of human squamous cell carcinoma FaDu cells during continuous Exposure ([…]); type: functional, cell-based
Thymidylate synthase [5] = molecular target: Thymidylate synthase (Escherichia coli, UniProt C3SWJ7); assay: Inhibitory concentration against Escherichia coli Thymidylate synthase (TS).
Sequence of Thymidylate synthase (Escherichia coli, UniProt C3SWJ7) (C3SWJ7 whole entry): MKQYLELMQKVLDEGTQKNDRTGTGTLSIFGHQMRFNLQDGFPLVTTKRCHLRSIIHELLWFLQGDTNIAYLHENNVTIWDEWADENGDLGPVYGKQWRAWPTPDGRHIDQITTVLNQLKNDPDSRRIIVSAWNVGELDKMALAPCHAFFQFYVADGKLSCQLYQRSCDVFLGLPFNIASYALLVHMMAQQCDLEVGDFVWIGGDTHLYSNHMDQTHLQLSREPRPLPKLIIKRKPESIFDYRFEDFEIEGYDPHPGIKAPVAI

Dihydrofolate reductase [6] = molecular target: T1, Dihydrofolate reductase
Description: Inhibitory concentration against recombinant human (rh) Dihydrofolate reductase

Thymidylate synthase [7] = molecular target: Thymidylate synthase (Homo sapiens, UniProt P04818); assay: Inhibitory concentration against recombinant human (rh) Thymidylate synthase (TS)
Sequence of Thymidylate synthase (Homo sapiens, UniProt P04818) (P04818 whole entry): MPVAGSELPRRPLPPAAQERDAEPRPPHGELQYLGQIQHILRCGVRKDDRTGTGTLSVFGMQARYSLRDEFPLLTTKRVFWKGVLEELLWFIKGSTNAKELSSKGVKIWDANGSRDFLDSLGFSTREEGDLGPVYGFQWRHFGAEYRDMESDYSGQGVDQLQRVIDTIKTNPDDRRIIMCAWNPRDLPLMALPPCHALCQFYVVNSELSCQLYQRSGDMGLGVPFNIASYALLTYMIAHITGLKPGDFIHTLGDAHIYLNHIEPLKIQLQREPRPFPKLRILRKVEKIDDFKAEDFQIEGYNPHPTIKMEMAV

Thymidylate synthase [8] = molecular target: Thymidylate synthase (Rattus norvegicus, UniProt P45352); assay: Inhibitory concentration against rat Thymidylate synthase (TS)
Sequence of Thymidylate synthase (Rattus norvegicus, UniProt P45352) (P45352 whole entry): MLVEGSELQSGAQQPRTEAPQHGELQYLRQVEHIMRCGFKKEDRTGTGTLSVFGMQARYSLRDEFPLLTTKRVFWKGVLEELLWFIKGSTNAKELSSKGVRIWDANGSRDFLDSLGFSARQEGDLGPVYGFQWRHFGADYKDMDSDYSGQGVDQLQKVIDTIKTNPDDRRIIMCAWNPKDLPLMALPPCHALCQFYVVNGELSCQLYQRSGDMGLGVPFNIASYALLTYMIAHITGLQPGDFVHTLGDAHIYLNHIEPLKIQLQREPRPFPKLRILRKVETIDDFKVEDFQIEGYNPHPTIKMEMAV

A253 cell line = assay: Growth inhibition of human squamous cell carcinoma A253 cells during continuous Exposure ([…]); type: functional, cell-based
Thymidylate synthase [9] = molecular target: T3, Thymidylate synthase (Lactobacillus casei, UniProt P00469); assay: Inhibitory concentration against Lactobacillus casei Thymidylate synthase (TS).; set-up: species or system Lacticaseibacillus casei
T3 sequence (P00469 whole entry): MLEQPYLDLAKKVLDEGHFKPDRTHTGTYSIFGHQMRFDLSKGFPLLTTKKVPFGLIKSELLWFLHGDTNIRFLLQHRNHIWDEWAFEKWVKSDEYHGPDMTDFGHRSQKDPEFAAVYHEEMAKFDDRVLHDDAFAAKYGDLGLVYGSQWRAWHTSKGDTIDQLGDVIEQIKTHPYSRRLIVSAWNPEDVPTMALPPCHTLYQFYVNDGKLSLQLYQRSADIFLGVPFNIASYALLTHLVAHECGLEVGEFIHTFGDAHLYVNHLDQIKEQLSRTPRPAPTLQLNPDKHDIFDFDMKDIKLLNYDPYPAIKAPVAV

Dihydrofolate reductase [10] = molecular target: T4, Dihydrofolate reductase (Escherichia coli, UniProt P0ABQ4)
T4 sequence (P0ABQ4 whole entry): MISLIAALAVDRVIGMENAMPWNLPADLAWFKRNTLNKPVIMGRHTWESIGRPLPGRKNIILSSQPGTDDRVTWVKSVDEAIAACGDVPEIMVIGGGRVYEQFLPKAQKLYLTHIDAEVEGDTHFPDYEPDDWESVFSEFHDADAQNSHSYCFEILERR
Description: Inhibitory concentration against Escherichia coli Dihydrofolate reductase

Dihydrofolate reductase [11] = molecular target: Dihydrofolate reductase (Lactobacillus casei, UniProt P00381); assay: Inhibitory concentration against Lactobacillus casei Dihydrofolate reductase; set-up: species or system Lacticaseibacillus casei
Sequence of Dihydrofolate reductase (Lactobacillus casei, UniProt P00381) (P00381 whole entry): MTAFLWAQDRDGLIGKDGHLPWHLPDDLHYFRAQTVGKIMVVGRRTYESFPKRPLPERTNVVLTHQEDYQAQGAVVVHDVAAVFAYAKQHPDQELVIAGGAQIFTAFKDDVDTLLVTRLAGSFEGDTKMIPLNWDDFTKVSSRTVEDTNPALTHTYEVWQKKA

[12] = Growth inhibition of MTX-resistant R1 sublines.; type: functional, Homo sapiens
[13] = Growth inhibition of MTX-resistant R30dm sublines.; type: functional, Homo sapiens
[14] = Growth inhibition of MTX-resistant R2(Bos) sublines.; type: functional, Homo sapiens
FaDu [15] = assay: protection of FaDu cells from the growth inhibitory effects of the compound.; type: functional, Homo sapiens; set-up: scale not given: the % may be the effect or the level left
FaDu [16] = assay: protection of FaDu cells from the growth inhibitory effects by 50 uM of hypoxanthine (HX); type: functional, Homo sapiens; set-up: scale not given: the % may be the effect or the level left
FaDu [17] = assay: protection of FaDu cells from the growth inhibitory effects by 40 uM of thymidine (TdR).; type: functional, Homo sapiens; set-up: scale not given: the % may be the effect or the level left
FaDu [18] = assay: protection of FaDu cells from the growth inhibitory effects by the combination of 50 uM of hypoxanthine (HX) and 40 uM of thymidine (TdR).; type: functional, Homo sapiens; set-up: scale not given: the % may be the effect or the level left
FaDu [19] = assay: protection of FaDu cells from the growth inhibitory effects by combination of 50 uM of thymidine (TdR).; type: functional, Homo sapiens; set-up: scale not given: the % may be the effect or the level left
[20] = substrate: C/C(=C/c1coc2nc(N)nc(N)c12)c1ccc(C(=O)N[C@@H](CCC(=O)O)C(=O)O)cc1.C/C(=C\c1coc2nc(N)nc(N)c12)c1ccc(C(=O)N[C@@H](CCC(=O)O)C(=O)O)cc1; assay: (§1) Activity as substrate for recombinant human Folyl-polyglutamate synthase (rhFPGS) relative to aminopterin.
[21] = substrate: Nc1nc(N)c2c(CCc3ccc(C(=O)N[C@@H](CCC(=O)O)C(=O)O)cc3)coc2n1; assay: as §1
[22] = substrate: C/C(=C\c1coc2nc(N)nc(N)c12)c1ccc(C(=O)N[C@@H](CCC(=O)O)C(=O)O)cc1; assay: as §1
[23] = substrate: CC(Cc1coc2nc(N)nc(N)c12)c1ccc(C(=O)N[C@@H](CCC(=O)O)C(=O)O)cc1; assay: as §1
[24] = substrate: Nc1nc(N)c2nc(CNc3ccc(C(=O)N[C@@H](CCC(=O)O)C(=O)O)cc3)cnc2n1; assay: as §1
[25] = substrate: C/C(=C/c1coc2nc(N)nc(N)c12)c1ccc(C(=O)N[C@@H](CCC(=O)O)C(=O)O)cc1.C/C(=C\c1coc2nc(N)nc(N)c12)c1ccc(C(=O)N[C@@H](CCC(=O)O)C(=O)O)cc1; assay: (§2) Activity as substrate for recombinant human Folyl-polyglutamate synthase (rhFPGS)
[26] = substrate: C/C(=C\c1coc2nc(N)nc(N)c12)c1ccc(C(=O)N[C@@H](CCC(=O)O)C(=O)O)cc1; assay: as §2
[27] = substrate: CC(Cc1coc2nc(N)nc(N)c12)c1ccc(C(=O)N[C@@H](CCC(=O)O)C(=O)O)cc1; assay: as §2
[28] = substrate: Nc1nc(N)c2nc(CNc3ccc(C(=O)N[C@@H](CCC(=O)O)C(=O)O)cc3)cnc2n1; assay: as §2

Molecule `Nc1nc(N)c2c(CNCc3ccc(C(=O)N[C@@H](CCC(=O)O)C(=O)O)cc3)coc2n1` has an IC50 (Dihydrofolate reductase [1]) of 10 µM.

For `Nc1nc(N)c2nc(CNc3ccc(C(=O)N[C@@H](CCC(=O)O)C(=O)O)cc3)cnc2n1`, the Ratio [2] was 0.23.

Work on `C/C(=C/c1coc2nc(N)nc(N)c12)c1ccc(C(=O)N[C@@H](CCC(=O)O)C(=O)O)cc1.C/C(=C\c1coc2nc(N)nc(N)c12)c1ccc(C(=O)N[C@@H](CCC(=O)O)C(=O)O)cc1` (mixture of isomers) yielded an EC50 (CCRF-CEM) of 1.18 µM, an IC50 [3] of 4.4 µM and an EC50 (FaDu [4]) of 1.4 µM. The IC50 (Thymidylate synthase [5]) was over 360 µM, the IC50 (Dihydrofolate reductase [6]) was 2.2 µM and the IC50 (Thymidylate synthase [7]) was over 360 µM. For the same molecule, the IC50 (Thymidylate synthase [8]) was over 360 µM, the EC50 (A253 cell line) was 0.7 µM and the IC50 (Thymidylate synthase [9]) was over 360 µM. The IC50 (Dihydrofolate reductase [10]) was 1.1 µM, the IC50 (Dihydrofolate reductase [11]) was 4.4 µM and the EC50 [12] was 32 µM. It also gave an EC50 [13] of 6.4 µM, an EC50 [14] of 17 µM and a Ratio [2] of 0.05.

In the case of `CC(Cc1coc2nc(N)nc(N)c12)c1ccc(C(=O)N[C@@H](CCC(=O)O)C(=O)O)cc1` (some centres undefined), the EC50 (CCRF-CEM) is reported as 0.0292 µM, the Control (FaDu [15]) is reported as 5.75% and the Control (FaDu [16]) is reported as 3.75%. It also gave an IC50 [3] of 2.1 µM, an EC50 (FaDu [4]) of 0.0175 µM and an IC50 (Thymidylate synthase [5]) of 100 µM. The Control (FaDu [17]) was 8%, the IC50 (Thymidylate synthase [7]) was over 360 µM and the IC50 (Thymidylate synthase [8]) was over 360 µM. For the same molecule, the EC50 (A253 cell line) was 0.0285 µM, the IC50 (Thymidylate synthase [9]) was over 360 µM and the IC50 (Dihydrofolate reductase [10]) was 1.1 µM. For the same molecule, the IC50 (Dihydrofolate reductase [11]) was 2.1 µM, the EC50 [12] was 0.685 µM and the EC50 [13] was 0.22 µM. The Control (FaDu [18]) was 105.25% and the EC50 [14] was 0.43 µM.

For `C/C(=C\c1coc2nc(N)nc(N)c12)c1ccc(C(=O)N[C@@H](CCC(=O)O)C(=O)O)cc1`, the EC50 (CCRF-CEM) was 34 µM, the IC50 [3] was 110 µM and the EC50 (FaDu [4]) was over 10 µM. It also gave an IC50 (Thymidylate synthase [5]) of over 360 µM, an IC50 (Dihydrofolate reductase [6]) of 42 µM and an IC50 (Thymidylate synthase [7]) of over 360 µM. It also gave an IC50 (Thymidylate synthase [8]) of over 360 µM, an EC50 (A253 cell line) of over 10 µM and an IC50 (Thymidylate synthase [9]) of over 360 µM. It also gave an IC50 (Dihydrofolate reductase [10]) of 11 µM, an IC50 (Dihydrofolate reductase [11]) of 84 µM and a Ratio [2] of 0.15.

With `CN(Cc1coc2nc(N)nc(N)c12)c1ccc(C(=O)N[C@@H](CCC(=O)O)C(=O)O)cc1` [FURO[2,3D]PYRIMIDINE ANTIFOLATE] the IC50 [3] was 19.8 µM, the IC50 (Thymidylate synthase [7]) was over 200 µM and the IC50 (Thymidylate synthase [9]) was over 200 µM. For the same molecule, the IC50 (Dihydrofolate reductase [11]) was 0.22 µM, the EC50 [12] was 0.807 µM and the EC50 [13] was 1.03 µM.

In the case of `Nc1nc(N)c2c(CNc3ccc(C(=O)N[C@@H](CCC(=O)O)C(=O)O)cc3)coc2n1`, the IC50 [3] is reported as 0.7 µM, the IC50 (Thymidylate synthase [7]) is reported as over 200 µM and the EC50 [12] is reported as 1.52 µM. For the same molecule, the EC50 [13] was 0.663 µM.

`CN(Cc1cnc2nc(N)nc(N)c2n1)c1ccc(C(=O)N[C@@H](CCC(=O)O)C(=O)O)cc1` [METHOTREXATE] gave a Control (FaDu [15]) of 5.75%, a Control (FaDu [16]) of 11.25% and an EC50 (FaDu [4]) of 0.0113 µM. For the same molecule, the Control (FaDu [17]) was 9.25%, the EC50 [12] was 0.675 µM and the EC50 [14] was 1.6 µM. The Control (FaDu [19]) was 102%.

For `Nc1nc(N)c2c(CCc3ccc(C(=O)N[C@@H](CCC(=O)O)C(=O)O)cc3)coc2n1`, the EC50 [13] was 0.425 µM and the Ratio [2] was 0.07.

B1: Folylpolyglutamate synthase, mitochondrial (Homo sapiens), Q05932 (protein)
chain: MSRARSHLRAALFLAAASARGITTQVAARRGLSAWPVPQEPSMEYQDAVRMLNTLQTNAGYLEQVKRQRGDPQTQLEAMELYLARSGLQVEDLDRLNIIHVTGTKGKGSTCAFTECILRSYGLKTGFFSSPHLVQVRERIRINGQPISPELFTKYFWRLYHRLEETKDGSCVSMPPYFRFLTLMAFHVFLQEKVDLAVVEVGIGGAYDCTNIIRKPVVCGVSSLGIDHTSLLGDTVEKIAWQKGGIFKQGVPAFTVLQPEGPLAVLRDRAQQISCPLYLCPMLEALEEGGPPLTLGLEGEHQRSNAALALQLAHCWLQRQDRHGAGEPKASRPGLLWQLPLAPVFQPTSHMRLGLRNTEWPGRTQVLRRGPLTWYLDGAHTASSAQACVRWFRQALQGRERPSGGPEVRVLLFNATGDRDPAALLKLLQPCQFDYAVFCPNLTEVSSTGNADQQNFTVTLDQVLLRCLEHQQHWNHLDEEQASPDLWSAPSPEPGGSASLLLAPHPPHTCSASSLVFSCISHALQWISQGRDPIFQPPSPPKGLLTHPVAHSGASILREAAAIHVLVTGSLHLVGGVLKLLEPALSQ
In the case of B1, the Vmax [20] is reported as 0.56, the Vmax [21] is reported as 0.065 and the Vmax [22] is reported as 0.76. It also gave a Vmax [23] of 0.52, a Vmax [24] of 1 and a Km [25] of 10.3 µM. It also gave a Km [26] of 5.3 µM, a Km [27] of 1.2 µM and a Km [28] of 4.5 µM.
